Measurements from US20180051221A1, “UNLEADED GASOLINE FORMULATIONS FOR PISTON ENGINES” (Swift Fuels, LLC, priority 2014, published 2018).
Like-named read-outs stand apart in the source and are kept apart here.

Experiments:
[1] = Octane enhancement by aromatic amines blended into aviation gasoline (compared to baseline avgas); settings: for Octane @ 6%*: amine at 6% in aviation gasoline; for Octane @ 9%*: amine at 9% in aviation gasoline
rat = settings: cited from earlier work
[2] = cited from earlier work; for OSHA Hazards: public MSDS / OSHA data
[3] = Solubility / physical state remarks on aromatic amines as avgas components; format: physicochemical; settings: remark on solubility above 6% or solid state at RT; b32 calls these solubility problems
[4] = within 10 days; cited from earlier work
[5] = occupational exposure limit, estimated; cited from earlier work
[6] = oral, MSDS data from Sigma-Aldrich, et al.

| SMILES | Octane @ 6%* [1] | Octane @ 9%* [1] | other results |
| --- | --- | --- | --- |
| Cc1ccc(F)c(N)c1 [2-fluoro-5-metylphenylamine] | 3.60 | 5.10 | – |
| Cc1cccc(N)c1 [3-methylphenylamine] | 5.40 | 7.40 | LD50 (rat, oral) (rat; in vivo, po): 450 mg/kg |
| Nc1ccccc1Cl [2-chlorophenylamine] | 4.50 | 5.60 | – |
| Nc1ccccc1 [phenylamine] | 5.70 | 8.70 | OSHA Hazards ([2]; listed as aniline): irritant; LD50 (rat, oral) (rat; in vivo, po): 250 mg/kg |
| CC(C)(C)c1ccc(N)cc1 [4-t-butylphenylamine] | 4.20 | 6.60 | – |
| C[CH2][Pb]([CH2]C)([CH2]C)[CH2]C [TEL, Tetraethyl lead] | – | – | LD50 (rat, oral) (rat; [6]): 14 mg/kg |
| CNc1ccc(F)cc1 [N-methyl-4-fluorophenylamine] | 2.50 | 2.60 | – |
| Cc1ccc(N)cc1C [3,4-dimethylphenylamine] | 5.60 | – | – |
| Nc1cc(F)c(F)c(F)c1F [2,3,4,5-tetrafluorophenylamine] | 1.70 | 2.50 | Other [3]: solid@RT |
| Cc1ccc(N)cc1 [4-methylphenylamine] | 6.10 | – | – |
| Nc1ccc(F)cc1 [4-fluorophenylamine] | 4.20 | 7.50 | – |
| Cc1cc(F)ccc1N [4-fluoro-2-metylphenylamine] | 1.60 | 2.10 | – |
| Cc1ccc(N)c(F)c1 [2-fluoro-4-metylphenylamine] | 4.00 | 5.10 | – |
| Cc1ccccc1 [Toluene] | – | – | LD50 (rat, oral) (rat; [6]): 5,000 mg/kg |
| Cc1cc(C)cc(N)c1 [3,5-dimethylphenylamine] | 5.70 | 8.70 | – |
| CCOC(C)(C)C [ETBE, ethyl tert-butyl ether] | – | – | OSHA Hazards [2]: Irritant; LD50 (rat, oral) (rat; [6]): 5,000 mg/kg |
| CCc1cccc(N)c1 [3-ethylphenylamine] | 3.80 | 6.60 | – |
| Nc1cccc(F)c1 [3-fluorophenylamine] | 4.20 | 6.70 | – |
| CNc1ccccc1 [N-methylphenylamine] | 2.10 | 2.60 | – |
| Cc1cc(C)cc(C)c1 [Mesitylene] | – | – | LD50 (rat, oral) (rat; [6]): 5,000 mg/kg |
| Nc1ccccc1F [2-fluorophenylamine] | 4.20 | 7.30 | – |
| CC(C)c1ccc(N)cc1 [Cumidine, 4-isopropylaniline] | 4.40 | 7.20 | biodegradable [4]: 88%; classification as mutagen or carcinogen ([2]; MSDS No. 818472, EMD Millipore): not classified as a mutagen or carcinogen; LD50 (rat, oral) (rat; oral, MSDS No. 818472, EMD Millipore): 757 mg/kg; LD50 (rat, oral) (rat; [6]): 757 mg/kg; TWA [5]: ~2 ppm |
| CCNc1ccccc1 [N-ethylphenylamine] | −2.50 | – | – |
| CCc1ccc(N)cc1 [4-ethylphenylamine] | 3.80 | 6.30 | – |
| c1ccccc1 [Benzene] | – | – | LD50 (rat, oral) (rat; in vivo, po): 2,990 mg/kg |
| Cc1ccccc1N [2-methylphenylamine] | 1.70 | 2.10 | – |
| Cc1c(N)cccc1F [3-fluoro-2-metylphenylamine] | 1.30 | 2.70 | – |
| Nc1cccc(Cl)c1 [3-chlorophenylamine] | 3.60 | – | – |
| Cc1ccc(F)cc1N [5-fluoro-2-metylphenylamine] | 1.60 | 2.10 | – |
